The record followed here is patent US6413947B1, “Anilide derivative, production and use thereof” (Takeda Chemical Industries, Ltd., priority 1997, dated 2002).

The target of the first data set is T1, human MCP-1 receptor (Homo sapiens, UniProt P41597).
T1 construct: expressed in transfected cells; host or cells: CHO cells, transformant CHO(MCR); FERM BP-5446; IFO 50461
T1 sequence (P41597 whole entry): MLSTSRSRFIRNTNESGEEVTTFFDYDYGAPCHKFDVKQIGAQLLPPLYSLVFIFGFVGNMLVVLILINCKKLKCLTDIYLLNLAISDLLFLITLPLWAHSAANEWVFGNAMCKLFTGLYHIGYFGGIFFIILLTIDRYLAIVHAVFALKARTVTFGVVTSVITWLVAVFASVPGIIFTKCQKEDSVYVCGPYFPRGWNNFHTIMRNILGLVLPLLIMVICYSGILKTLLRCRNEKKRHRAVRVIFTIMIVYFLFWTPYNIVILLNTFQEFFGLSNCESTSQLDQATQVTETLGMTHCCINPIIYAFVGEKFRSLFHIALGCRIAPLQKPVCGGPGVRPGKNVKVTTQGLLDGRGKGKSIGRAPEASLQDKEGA
The data set can be described thus: Determination of inhibitory activity on MCP-1 receptor (125I-MCP-1 binding to CHO cells expressing human MCP-1 receptor). The following applies: Test Compound 1 μM, 125I-human recombinant MCP-1 100 pM, room temperature 40 minutes. How it is done: According to a method described in Working Example 1 of JP-A-238688/1997, human MCP-1 receptor gene was prepared. Said gene was inserted to plasmid pMCR, which was introduced into CHO cell. The resultant transformant [CHO(MCR); FERM BP-5446; IFO 50461] was used for the following experiment.
On 96 well culture plate (Packard Instrument Company), 7×10^4 cell/well of CHO cells expressing human MCP-1 receptor were inoculated, and the cells were cultivated at 37° C., overnight. The medium was removed by means of suction. To the residue were added a buffer solution (D-MEM containing 0.5% BSA and 20 mM HEPES; pH7.4), Test Compound (1 μM) and ^125I-human recombinant MCP-1 (Amersham; final concentration: 100 pM), and the mixture was allowed to react at room temperature for 40 minutes. The buffer solution was removed by means of suction and washed twice with PBS. To the residue was added MICROSCINT-20 (Packard Instrument Company), radioactivity of ^125I (cpm) was determined with Topcount (Packard).
The count number (cpm) (non-specific binding) of ^125I which binds to CHO cells (mock) having a vector was taken from the count number (cpm) of ^125I which binds to CHO cells expressing human MCP-1 receptor to obtain the amended count number, which was converted into 100%, and inhibition rate of Test Compound (whose number is referred to in the following Examples) against MCP-1 binding to its receptor was calculated.
Turning to `CCc1ccc(-c2ccc3c(c2)C=C(C(=O)Nc2ccc(CP4(=O)CCCCC4)cc2)CCO3)cc1` [Compound 178, N-(4—(pentamethylene)-phosphorylmethylphenyl)-7—(4-ethylphenyl)-2,3-dihydro-1-benzoxepine-4-carboxamide], the “Inhibition Rate (%) against MCP-1 binding to its receptor” value (“Inhibition Rate (%) … to its receptor” for short) was 64%.

`CN(Cc1ccc(NC(=O)C2=Cc3cc(-c4ccc(N5CCCCC5)cc4)ccc3OCC2)cc1)C1CCOCC1` [Compound 151]: the “Inhibition Rate (%) … to its receptor” value is listed as 80%.

Turning to `Cc1ccc(-c2ccc3c(c2)C=C(C(=O)Nc2ccc(CN(C)C4CCOCC4)cc2)CCO3)cc1` [Compound 128, N-(4—(N-methyl-(N-tetrahydropyran-4-yl)aminomethyl)phenyl)-7—(4-methylphenyl)-2,3-dihydro-1-benzoxepine-4-carboxamide], the “Inhibition Rate (%) … to its receptor” value worked out at 80%.

Consider `Cc1ccc(-c2cccc(/C=C/C(=O)Nc3ccc(C[N+]4(C)CCCCC4)cc3)c2)cc1` [Compound 72, (E)-1-methyl-1-[4—(3—(4-methylphenyl)cinnamamido)benzyl]-piperidinium iodide], for which the “Inhibition Rate (%) … to its receptor” value worked out at 77%.

With `Cc1ccc(-c2ccc3c(c2)C=C(C(=O)Nc2ccc(C[N+]4(C)CCCCC4)cc2)CCS3)cc1` [Compound 94, 1—(N-(7—(4-methylphenyl)-2,3-dihydro-1-benzo-thiepine-4-carbonyl)-4-aminobenzyl)-1-methyl-piperidinium iodide], the “Inhibition Rate (%) … to its receptor” value is recorded as 92%.

With `Cc1ccc(-c2ccc3c(c2)C=C(C(=O)Nc2ccc(C[N+](C)(C)C4CCOCC4)cc2)CCC3)cc1` [Compound 220, N,N-dimethyl-N-(4—((2—(4-methylphenyl)-6,7-dihydro-5H-benzocyclohepten-8-yl)carbonyl)aminobenzyl)-N-(4-tetrahydropyranyl)ammonium iodide], the “Inhibition Rate (%) … to its receptor” value is reported as 98%.

In the case of `Cc1ccc(-c2ccc3c(c2)C=C(C(=O)Nc2ccc(C[N+]4(C)CCCCC4)cc2)CC3)cc1` [Compound 16, 1-methyl-1-[4-[7—(4-methylphenyl)-3,4-dihydronaphthalene-2-carboxamido]benzyl]piperidinium iodide], the “Inhibition Rate (%) … to its receptor” value amounted to 89%.

For `Cc1ccc(-c2ccc3c(c2)C=C(C(=O)Nc2ccc(C[N+]4(C)CCCCC4)cc2)CCO3)cc1` [Compound 97, 1—(N-(7—(4-methylphenyl)-2,3-dihydro-1-benzoxepin-4-carbonyl)-4-aminobenzyl)-1-methylpiperidinium chloride], the “Inhibition Rate (%) … to its receptor” value is 96%.

The target of the next data set is T2, human CCR5 (Homo sapiens, UniProt P51681).
T2 construct: expressed in transfected cells; host or cells: CHO-K1 cells, geneticin-resistant clone CHO/CCR5
T2 sequence (P51681 whole entry): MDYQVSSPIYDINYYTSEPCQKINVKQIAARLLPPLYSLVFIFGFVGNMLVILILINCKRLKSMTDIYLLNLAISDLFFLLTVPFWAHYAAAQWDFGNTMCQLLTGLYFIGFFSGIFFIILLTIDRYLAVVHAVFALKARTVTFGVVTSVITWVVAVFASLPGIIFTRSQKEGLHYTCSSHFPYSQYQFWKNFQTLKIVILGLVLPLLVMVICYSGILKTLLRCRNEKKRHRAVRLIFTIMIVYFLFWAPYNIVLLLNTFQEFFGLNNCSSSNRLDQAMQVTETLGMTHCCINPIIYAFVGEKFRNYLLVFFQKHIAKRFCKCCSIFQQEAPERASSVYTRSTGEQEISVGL
The data set can be described thus: CCR5 antagonistic activity ([125I]-RANTES binding to CHO/CCR5 cells). As to conditions: Test Compound 1 μM, 100 pM [125I]-RANTES, room temperature 30 minutes. As for the experimental part: Cloning of CCR5 gene was carried out by PCR (polymerase chain reaction) from human spleen cDNA. With using 0.5 ng of spleen cDNA (Toyobo, QUICK-Clone cDNA) as template, PCR was performed in DNA Thermal Cycler 480 (Perkin-Elmer) (reaction conditions: 30 cycles of 95° C. for 1 minute, 60° C. for 1 minute, and 75° C. for 5 minutes) by adding primer set, 5′-CAGGATCCGATG […]-3′ (25 pmol) and 5′-TCTAGATCACAAGCC CACAGATATTTCCTGCTCC-3′ (25 pmol), which were designed referring to nucleotide sequence of CCR5 gene reported by Samson et al. (Biochemistry, 35(11), 3362-3367 (1996)) and by using TaKaRa EX Taq (Takara Shuzo). The resultant PCR product was subjected to agarose gel electrophoresis to collect about 1.0 kb DNA fragment, which was subjected to Original TA Cloning Kit (Funakoshi) to carry out cloning of CCR5 gene.
The plasmid obtained in the above (1) was digested with restriction enzymes XbaI (Takara Shuzo) and BamHI (Takara Shuzo) and subjected to agarose gel electrophoresis to collect about 1.0 kb DNA fragment. The DNA fragment was mixed with plasmid pcDNA3.1 (Funakoshi) for expression in animal cells, said plasmid being digested with XbaI and BamHI, and they were ligated with DNA Ligation Kit Ver.2 (Takara Shuzo). The resulting plasmid was subjected to transformation of competent cell of E. coli JM109 (Takara Shuzo) to obtain plasmid pCKR5.
CHO-K1 cells were grown in 750 ml of tissue culture flask (Becton Dickinson) using Ham's F12 medium (Nihon Pharmaceutical) containing 10% fetal calf serum (Life Tech Oriental) and took off with 0.5 g/L trypsin-0.2 g/L EDTA (Life Tech Oriental). The cells were washed with PBS (Life Tech Oriental), centrifuged (1000 rpm, 5 minutes), and suspended in PBS. With using Gene Pulser (Bio-Rad Laboratories), DNA was introduced into the cells under the conditions shown below. That is, to the cuvette of 0.4 cm gap were added 8×10^6 cells and 10 μg of plasmid pCKR5 for expression of human CCR5, and electroporation was carried out under 0.25 kV of voltage and 960 μF of capacitance. The cells were transferred into Ham's F12 medium (Nihon Pharmaceutical) containing 10% fetal calf serum, and cultivated for 24 hours. The cells were again took off and centrifuged, and suspended in Ham's F12 medium (Nihon Pharmaceutical) containing 10% fetal calf serum and 500 μg/ml of geneticin (Life Tech Oriental). The suspension was diluted to give 1 cells/ml of the suspension, which was inoculated on 96 well plate (Becton Dickinson) to give geneticin resistant cells. The resulting geneticin resistant cells were cultivated in 96 well plate (Becton Dickinson), and cells expressing CCR5 were selected from the geneticin resistant cells. That is, in assay buffer (Ham's F12 medium containing 0.5% BSA and 20 mM HEPES (Wako Pure Chemical, pH7.2) to which was added 200 pM of [^125I]-RANTES (Amersham) as ligand, binding reaction was carried out at room temperature for 40 minutes, and the buffer was washed with cooled PBS. To the buffer was added 50 μl/well of 1M NaOH, and the mixture was stirred. Radioactivity was determined with γ-counter to select CHO/CCR5 cells which specifically bind to the ligand.
The CHO/CCR5 were inoculated on 96 well microplate (5×10^4 cells/well) and cultivated for 24 hours. […] Radio-activity was determined with Top-Count Micro Scintillation Counter (Packard Instrument, Inc.). […]
Regarding “N-((7—(4-methylphenyl)-2,3-dihydro-1-benzoxepin-4-carbonyl)-2—(4-aminophenyl)ethyl)-N-methylpiperidinium iodide [Compound 100]”, the “Inhibition Rate (%) to CCR5 binding” value stood at 100%.

With `CC(C)(C)c1ccc(-c2ccc3c(c2)C=C(C(=O)Nc2ccc(CP4(=O)CCCCC4)cc2)CCO3)cc1` [Compound 180, N-(4—(pentamethylene)phosphorylmethylphenyl)-7—(4-tert-butylphenyl)-2,3-dihydro-1-benzoxepine-4-carboxamide], the “Inhibition Rate (%) to CCR5 binding” value is 99%.

For the molecule `Cc1ccc(-c2ccc(/C=C/C(=O)Nc3ccc(CP4(=O)CCCCC4)cc3)s2)cc1` [Compound 209, (E)-N-(4-pentamethylenephosphorylmethylphenyl)-3-[5—(4-methylphenyl)thiophen-2-yl]acrylic amide], the “Inhibition Rate (%) to CCR5 binding” value came out at 80%.

Staying with this data set, now noted: Test Compound 1 μM, 100 pM [125I]-RANTES, room temperature 30 minutes, read-out: Inhibition Rate (%) to CCR5 binding.
As to `CCOc1ccc(-c2ccc3c(c2)C=C(C(=O)Nc2ccc(C[N+](C)(C)C4CCOCC4)cc2)CCO3)cc1` [Compound 250, N-(4-(((7-(4-ethoxyphenyl)-2,3-dihydro-1-benzoxepin-4-yl)carbonyl)amino)benzyl)-N,N-dimethyl-N-(4-tetrahydropyranyl)ammonium chloride], the inhibition (usually the change of the read-out against control, counted positive when it falls) at 1 µM was 96%.

Tested on in the next data set: not given
Assay: not given
Settings: not given
Regarding `Cc1ccc(-c2ccc3c(c2)C=C(C(=O)Nc2ccc(CN(C)C4CCOCC4)cc2)CCO3)cc1` [Compound 128, N-(4—(N-methyl-(N-tetrahydropyran-4-yl)aminomethyl)phenyl)-7—(4-methylphenyl)-2,3-dihydro-1-benzoxepine-4-carboxamide], the melting point (as a rule, the temperature, or range, at which the solid turns liquid) is 162 to 163 °C.

For `Cc1ccc(-c2ccc3c(c2)C=C(C(=O)Nc2ccc(CN4CCCCC4)cc2)C3)cc1` [Compound 60, N-[4—(piperidinomethyl)phenyl]-5—(4-methylphenyl)indene-2-carboxamide], the melting point fell in the range of 219 to 220 °C.

Take `CN1CCCN(C)P1(=O)Cc1ccc(NC(=O)C2=Cc3cc(-c4ccccc4)ccc3CC2)cc1` [Compound 89, 2—(4—(3,4-dihydro-7-phenyl-naphthalene-2-carbonyl-amino)benzyl)-1,3-dimethyl-1,3,2-diazaphosphorinane-2-oxide]: the melting point lay within 249 to 250 °C.

With `Cc1ccc(-c2ccc3c(c2)C=C(C(=O)Nc2ccc(C[N+](C)(C)C4CCOCC4)cc2)CCO3)cc1.[Cl-]`, the melting point was 232 to 237 °C (dec.).

For the molecule `CN1CCC(C(=O)Nc2ccc(CN(C)C3CCOCC3)cc2)=Cc2cc(-c3ccc(N4CCCCC4)cc3)ccc21` [Compound 316, 1-methyl-N-[4-[[N-methyl-N-(tetrahydro-2H-pyran-4-yl)amino]methyl]-phenyl]-7-[4-(1-piperidinyl)phenyl]-2,3-dihydro-1-benzazepine-4-carboxamide], the melting point was 202 to 204 °C.

As to `Cc1ccc(-c2ccc3c(c2)C=C(C(=O)Nc2ccc(C(=O)C4CCCCN4C)cc2)CCO3)cc1` (stereo not shown), the melting point was in the range of 162 to 163 °C.

The molecule `Cc1ccc(-c2ccc3c(c2)C=C(C(=O)Nc2ccc(CSc4ccccc4)cc2)CCO3)cc1` [Compound 82, 7—(4-methylphenyl)-N-(4—(phenyl-thiomethyl)phenyl)-2,3-dihydro-1-benzoxepine-4-carboxamide] had a melting point of 176 to 177 °C.
